# Laboratory results reported in patent US11472846B2, “Compositions and methods for treating diseases by inhibiting exosome release” (priority 2016, dated 2022).
# Entries after “also recorded” stand apart in the source; their conditions may differ. Like-named read-outs stand apart in the source and are kept apart here.
# Columns and labels:
# Assay type in all cases: cell-based, human
# [1] = tested on: MDA-MB-231 breast cancer cells; assay: MTT proliferation assay, MDA-MB-231; conditions: MDA-MB-231 cells, 24 hours
# Procedure: (§1) 1-3. Viability and proliferation. Human breast cancer cell lines were seeded into 96-well plates (5000 cells/well) and treated for 24 hours with various concentrations of SMR peptides including PEG-SMRwt-Clu, PEG-SMRwt and PEG-SMRmut to determine IC50 (inhibition concentration). Cell proliferation was determined using the MTT assay (Molecular Devices, Sunnyvale, Calif.). Control experiments were performed with MTT treated cells alone and untreated cells, and on this basis, the incubation times of 24 hr and 48 hr were used for an MTT assay of peptide-treated cells (Stockerta JC. et al., 2012 and Riss TL. et al., 2015).
# (§2) 7-4. Cell proliferation and cytotoxicity assay. Human breast cancer cell lines MCF-7, MDAMB-231, and leukemia K562 cells, and non-tumorigenic MCF-10A cells are seeded into 96-well plates (5000 cells/well) and treated for 24 hours with 0-1120 nM SMRwt-CPP or SMRmut-CPP (FIG. 10). Cell proliferation was determined using the MTT [3-(4,5-dimethylthiazol-2-yl)-2,5-diphenyltetrazolium bromide] dye assay by SpectraMax M5 Fluorescence Plate Reader (Molecular Devices. Sunnyvale, Calif.). Cell viability was estimated by the conversion of yellow MTT by mitochondrial dehydrogenases of living cells to purple formazon (MTT assay). Control experiments were performed with cells treated or untreated with MTT, and on this basis, an incubation time of 24 hours was used for MTT assays of peptide-treated cells (Huang, M. B., et al., Oncotarget, 2017. 8(7): pp. 11302-11315.). Statistical significance of results was determined from three independent experiments including triplet or quadruplet sets in each experiment.
# [2] = tested on: MCF-7 breast cancer cells; assay: Exosome nanoparticle tracking analysis (NanoSight NTA), MCF-7; conditions: MCF-7 cells treated 48 hr; untreated control 5.16×10^9 particles/ml
# Procedure: (§3) 1-6. Exosome isolation and purification. Exosomes were isolated from breast cancer cells by differential centrifugation as previously described (Ali SA. et al., 2010). Untreated tumor cells were used as a control. Briefly, the above treated and untreated cell culture supernatants were centrifuged at 400×g for 10 minutes. The supernatants were transferred to a clear tube and centrifuged at 10,000×g for 30 minutes. The supernatants from the second spin were ultracentrifuged at 200,000×g for 2 hours to pellet exosomes. Finally, the exosome pellets were re-suspended with PBS and stored at 4° C. until used for analysis.
# (§4) 1-8. Exosome nanoparticle tracking analysis (NTA). Analysis of absolute size distribution of exosomes was performed using NanoSight LM10 with NTA2.3 (NanoSight Ltd., Minton Park, UK). Particles were automatically tracked and sized based on Brownian motion and the diffusion coefficient. After isolation, the untreated and treated breast cancer exosomes were re-suspended in 0.5 mL of PBS. Control medium and filtered PBS were used as controls in this technique. The NTA measurement conditions were: temperature=21.0+/−0.5° C.; viscosity=0.99+/−0.01 cP; frames per second=25; measurement time=30 s. The detection threshold was similar in all samples. Two recordings were performed for each sample.
# (§5) 7-11. Exosome nanoparticle tracking analysis (NTA). […]
# [3] = tested on: MCF-7 breast cancer cells; assay: MTT proliferation assay, MCF-7; conditions: MCF-7 cells, 24 hours
# Procedure: as §1, §2
# [4] = tested on: MDA-MB-231 breast cancer cells; assay: Propidium iodide cell cycle analysis (Cellometer), MDA-MB-231; conditions: MDA-MB-231 cells, 48 hours, 0.28 μM/mL peptide
# Procedure: (§6) 1-4. Cell cycle analysis. MCF-7 and MDA-MB-231 breast cancer cells were cultured into 6-well plates at 4×10^5 cells per well and treated with either paclitaxel and cisplatin or combined with PEG-SMRwt-CLU peptide for 24 and 48 hours. Cell cycle analysis was performed using a propidium iodide cell cycle assay and measured using a Cellometer (Nexcelom, MA). […] Breast cancer cells were seeded into 96-well plates at 5×10^3 cells/ml, and treated with either 1.6 μM//mL of paclitaxel, or 3 mg/mL cisplatin, 1.12 μM/mL PEG-SMRwt-CLU peptide, SMR peptide combined with paclitaxel or with cisplatin (MCF-7 cells). Alternatively 1.6 μM/mL paclitaxel or 2 mg/mL cisplatin or 0.28 μM/mL of PEG-SMR-CLU peptide, or the peptide combined with each of these drugs was used for MDA-MB-231 cells. The concentrations for cisplatin and paclitaxel were experimentally determined IC50 dosages for the different cell types (data not shown). At the end of the 24 hr or 48 hr incubations, the cells were assessed by the Cellometry imaging cytometry assay.
# (§7) All above steps were done on MCF-7 and MDA-MB-231 cells separately. […]
# [5] = tested on: MDA-MB-231 breast cancer cells; assay: Exosome nanoparticle tracking analysis (NanoSight NTA), MDA-MB-231; conditions: MDA-MB-231 cells treated 48 hr; control 4.7×10^9 particles/ml
# Procedure: as §3, §4, §5
# [6] = tested on: MCF-7 breast cancer cells; assay: Propidium iodide cell cycle analysis (Cellometer), MCF-7; conditions: MCF-7 cells, 48 hours, 1.12 μM/mL peptide
# Procedure: as §6, §7
# [7] = tested on: MCF-7 breast cancer cells; assay: Annexin V-FITC/PI apoptosis assay, MCF-7; conditions: MCF-7 cells, 48 hours
# Procedure: 1-5. Assessment of apoptosis. Breast cancer cells were seeded into 6-well plates at 4×10^5 cells per well and treated with either paclitaxel or cisplatin or various concentrations of SMR peptides for 24 hours or different time point. SMR as described above. Apoptosis was determined the using Annexin V-FITC detection kit (Nexcelom, MA) and visualized by Cellometer imaging cytometry.
# [8] = tested on: non-tumorigenic MCF-10A cells; assay: MTT proliferation assay, MCF-10A; conditions: 24 hours, up to 1120 nM/mL
# Procedure: as §1
# as §2, with “Control experiments were performed with cells treated or untreated with MTT, and on this basis, an incubation time of 24 hours was used for MTT assays of peptide-treated cells (Huang, M. B., et al., Oncotarget, 2017. 8(7): pp. 11302-11315.).” left out
# [9] = MTT, read-out: 50% inhibition of cell growth
# [10] = read-out: SMR at IC50 concentration
sequence,measurement,setting,value
NXNVGFPVAAVGFPVHPLSKHPYWSQP (SEQ ID NO: 37) [PEG-SMRwt-Clu],IC50,[1]; [9],280 nM
same,IC50,[1]; [10],280 nM
same,number of exosome particles (NTA),[2],3.28×10^8 particles/ml
same,IC50,[3]; [9],1120 nM
same,IC50,[3]; [10],1120 nM
same,cell cycle effect,[4],induced cell cycle arrest
same,number of exosome particles (NTA),[5],6.8×10^8 particles/ml
same,cell cycle effect,[6],induced cell cycle arrest
same,effect on paclitaxel/cisplatin-induced apoptosis,[7],increased the level of drug-induced apoptosis
VGFPVAAVGFPVGRKKRRQRRRPPQ [SMRwt-CPP],effect on proliferation (in words),[8],not affected; also recorded: no effect
